The values that follow come from US20210346411A1 (priority 2020, published 2021).

One series deals with Vero E6 cells. The series can be described thus: Cytotoxicity test of drug (CCK-8 kit). In kind it is cell-based. The note with it: all test concentrations (0.14-100 μM), 48 hours.
The test system of the next series is EBOV. The note with it: intravenous 10 mg/kg per day for consecutive 12 days, treatment started three days after virus exposure; cited from earlier work.
Series [1] concerns SARS-CoV-2 (2019-nCoV) virus (nCoV-2019BetaCoV/Wuhan/WIV04/2019 strain). Put plainly: Reduction of viral nucleic acid load of Vero E6 cells infected by SARS-CoV-2 (qRT-PCR of supernatant). Conditions: for Virus genome copy number: 48 h, Vero E6, 100TCID50, supernatant. In kind it is cell-based. Also noted: Virus genome copy number: unit not given here.

“Also recorded” adds a separate entry of the source.

On to `CCC(CC)COC(=O)[C@H](C)N[P@](=O)(OC[C@H]1O[C@@](C#N)(c2ccc3c(N)ncnn23)[C@H](O)[C@@H]1O)Oc1ccccc1` [Remdesivir, 2-ethylbutyl (2S)-2-[[[(2R,3S,4R,5R)-5-(4-aminopyrrolo[2,1-f][1,2,4]triazin-7-yl)-5-cyano-3,4-dihydroxyoxolan-2-yl]methoxy-phenoxyphosphoryl]amino]propanoate], for which the “cytotoxicity (toxic effect on the cells)” value in the series with Vero E6 cells is “no cytotoxicity was observed; also recorded: no toxic effect”. The “EBOV-infected animals protected from death” value in the series with EBOV was 100%. Further, the “replication of EBOV” value in the series on EBOV is “significantly inhibit”. Moreover, the “Virus genome copy number” value is 6120820311.5 in series [1] (0.14 μM); 1751863138.5 in series [1] (0.41 μM); 879273650.5 in series [1] (1.23 μM); 20287512.5 in series [1] (3.70 μM); 16308516.5 in series [1] (11.11 μM); 12429732 in series [1] (33.33 μM). Moreover, the “Virus genome copy number” value in series [1] (100 μM) was 9010444.5. In series [1] (concentrations of 100 μM, 33 μM, 11.1 μM and 3.7 μM), the “inhibition of the replication of the SARS-CoV-2 virus genome in the infected supernatant” value was “could effectively inhibit”. Further, the “reduction of the viral nucleic acid load” value in series [1] (drug concentration of 33 μM, 48 hours after infection, Vero E6) is given as “an order of magnitude”. The “viral nucleic acid load in cells infected by SARS-CoV-2” value in series [1] (micromolar concentration level) was “can reduce the viral nucleic acid load”.
